Values joined by “and” are separate entries in the source; they are usually repeats but may differ in a detail not shown here. Equal entries are not always repeated. Blank lines part the entries; values can stand above or below the compound they belong to.
System: 874868-142-R-J2-PDC complex spheroids, growth % test/control
Test: Anticancer human tumor 874868-142-R-J2-PDC patient-derived head and neck squamous carcinoma cell line growth inhibition [CLK]
Settings: for viability, T/C: stronger effect = lower value
Method in brief: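 Patient-derived tumor cells grown as complex spheroids with HUVEC endothelial cells and mesenchymal stem cells, treated with drug combinations. Concentrations descend in half-log steps from near clinical Cmax, or from 10 microM if Cmax unknown.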

[1] = curve of first compound, second compound 0.0316 µM
[2] = curve of first compound, second compound 0.1 µM
[3] = curve of first compound, second compound 0.316 µM
[4] = curve of first compound, second compound 1 µM
[5] = curve of first compound, second compound 3.16 µM
[6] = curve of first compound, second compound 10 µM
[7] = second compound 0.0316 µM, first compound 0.0316 µM
[8] = second compound 0.0316 µM, first compound 0.1 µM
[9] = second compound 0.0316 µM, first compound 0.316 µM
[10] = second compound 0.0316 µM, first compound 1 µM
[11] = second compound 0.1 µM, first compound 0.0316 µM
[12] = second compound 0.1 µM, first compound 0.1 µM
[13] = second compound 0.1 µM, first compound 0.316 µM
[14] = second compound 0.1 µM, first compound 1 µM
[15] = second compound 0.316 µM, first compound 0.0316 µM
[16] = second compound 0.316 µM, first compound 0.1 µM
[17] = second compound 0.316 µM, first compound 0.316 µM
[18] = second compound 0.316 µM, first compound 1 µM
[19] = second compound 1 µM, first compound 0.0316 µM
[20] = second compound 1 µM, first compound 0.1 µM
[21] = second compound 1 µM, first compound 0.316 µM
[22] = second compound 1 µM, first compound 1 µM
[23] = second compound 3.16 µM, first compound 0.0316 µM
[24] = second compound 3.16 µM, first compound 0.1 µM
[25] = second compound 3.16 µM, first compound 0.316 µM
[26] = second compound 3.16 µM, first compound 1 µM
[27] = second compound 10 µM, first compound 0.0316 µM
[28] = second compound 10 µM, first compound 0.1 µM
[29] = second compound 10 µM, first compound 0.316 µM
[30] = second compound 10 µM, first compound 1 µM
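Also: spheroids exposed to the compounds for 7 days.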
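For viability, T/C in this document: 100% = DMSO vehicle control viability.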

IC50 (curve of compound): < 31.6 nM
SMILES: CC(=O)O[C@H]1C(=O)[C@@]2(C)[C@H]([C@H](OC(=O)c3ccccc3)[C@]3(O)C[C@H](OC(=O)[C@H](O)[C@@H](NC(=O)c4ccccc4)c4ccccc4)C(C)=C1C3(C)C)[C@]1(OC(C)=O)CO[C@@H]1C[C@@H]2O
viability, T/C (compound 0.0316 µM): 24.8% and 41.2% | viability, T/C (compound 0.1 µM): 22.5% and 38.5% | viability, T/C (compound 0.316 µM): 21.1% and 41.4% | viability, T/C (compound 1 µM): 28.7% and 47.2% | viability, T/C (compound 3.16 µM): 23.2% and 42.7% | viability, T/C (compound 10 µM): 36.4% and 50.2%

SMILES: CC(CO)NC(=O)c1cc(-c2ccc(Cl)cc2)nn(-c2cnn(C)c2)c1=O (stereo unspecified) + CN1CCN(c2cc(C(=O)Nc3cc4cc(-c5cnn(C)c5)ccc4cn3)ccn2)CC1
IC50 [1]: > 10000 nM | IC50 [2]: > 10000 nM | IC50 [3]: < 31.6 nM | IC50 [4]: < 31.6 nM | IC50 [5]: < 31.6 nM | IC50 [6]: < 31.6 nM | viability, T/C [7]: 105% | viability, T/C [8]: 99.2% | viability, T/C [9]: 82.4% | viability, T/C [10]: 92.8% | viability, T/C (second compound 0.0316 µM, first compound 3.16 µM): 93% | viability, T/C (second compound 0.0316 µM, first compound 10 µM): 83.8% | viability, T/C [11]: 76.1% | viability, T/C [12]: 72.2% | viability, T/C [13]: 65.8% | viability, T/C [14]: 67.9% | viability, T/C (second compound 0.1 µM, first compound 3.16 µM): 68.5% | viability, T/C (second compound 0.1 µM, first compound 10 µM): 77.2% | viability, T/C [15]: 19.4% | viability, T/C [16]: 24.8% | viability, T/C [17]: 20.6% | viability, T/C [18]: 19.1% | viability, T/C (second compound 0.316 µM, first compound 3.16 µM): 20.2% | viability, T/C (second compound 0.316 µM, first compound 10 µM): 29.1% | viability, T/C [19]: 0.42% | viability, T/C [20]: 5.08% | viability, T/C [21]: 2.66% | viability, T/C [22]: 0.31% | viability, T/C (second compound 1 µM, first compound 3.16 µM): 0.63% | viability, T/C (second compound 1 µM, first compound 10 µM): 1.19% | viability, T/C [23]: 0.31% | viability, T/C [24]: 0.77% | viability, T/C [25]: 0.29% | viability, T/C [26]: 0.32% | viability, T/C (second compound 3.16 µM, first compound 3.16 µM): 3.04% | viability, T/C (second compound 3.16 µM, first compound 10 µM): 2.75% | viability, T/C [27]: 0.18% | viability, T/C [28]: 0.21% | viability, T/C [29]: 2.19% | viability, T/C [30]: 0.22% | viability, T/C (second compound 10 µM, first compound 3.16 µM): 3.03% | viability, T/C (second compound 10 µM, first compound 10 µM): 0.28%

SMILES: CNC(=O)c1ccc(Nc2nc(OC3CCCC3)c3c(-c4ccc5nc(C)oc5c4)c[nH]c3n2)c(OC)c1
viability, T/C (compound 0.1 µM): 89.6% [middle of 11 runs] | viability, T/C (compound 0.316 µM): 60.3% [middle of 11 runs] | viability, T/C (compound 1 µM): 50% [middle of 10 runs] | viability, T/C (compound 3.16 µM): 44.5% [middle of 11 runs] | viability, T/C (compound 10 µM): 42.6% [middle of 11 runs]

IC50 [1]: > 1000 nM | IC50 [2]: > 1000 nM | IC50 [3]: > 1000 nM | IC50 [4]: < 3.16 nM | IC50 [5]: < 3.16 nM | IC50 [6]: < 3.16 nM
SMILES: CCN1CCN(Cc2ccc(Nc3ncc(F)c(-c4cc(F)c5nc(C)n(C(C)C)c5c4)n3)nc2)CC1 + CNC(=O)c1ccc(Nc2nc(OC3CCCC3)c3c(-c4ccc5nc(C)oc5c4)c[nH]c3n2)c(OC)c1
viability, T/C (second compound 0.0316 µM, first compound 0.00316 µM): 96.9% | viability, T/C (second compound 0.0316 µM, first compound 0.01 µM): 103% | viability, T/C [7]: 95.2% | viability, T/C [8]: 100% | viability, T/C [9]: 121% | viability, T/C [10]: 113% | viability, T/C (second compound 0.1 µM, first compound 0.00316 µM): 106% | viability, T/C (second compound 0.1 µM, first compound 0.01 µM): 91.8% | viability, T/C [11]: 94.5% | viability, T/C [12]: 81.6% | viability, T/C [13]: 109% | viability, T/C [14]: 113% | viability, T/C (second compound 0.316 µM, first compound 0.00316 µM): 59.4% | viability, T/C (second compound 0.316 µM, first compound 0.01 µM): 62.7% | viability, T/C [15]: 56.2% | viability, T/C [16]: 64.6% | viability, T/C [17]: 84.8% | viability, T/C [18]: 99.9% | viability, T/C (second compound 1 µM, first compound 0.00316 µM): 46.2% | viability, T/C (second compound 1 µM, first compound 0.01 µM): 44.8% | viability, T/C [19]: 44.4% | viability, T/C [20]: 49.3% | viability, T/C [21]: 67.9% | viability, T/C [22]: 68.7% | viability, T/C (second compound 3.16 µM, first compound 0.00316 µM): 41.9% | viability, T/C (second compound 3.16 µM, first compound 0.01 µM): 50.8% | viability, T/C [23]: 41.5% | viability, T/C [24]: 38.5% | viability, T/C [25]: 50.8% | viability, T/C [26]: 72.5% | viability, T/C (second compound 10 µM, first compound 0.00316 µM): 46.2% | viability, T/C (second compound 10 µM, first compound 0.01 µM): 40.5% | viability, T/C [27]: 56% | viability, T/C [28]: 45.6% | viability, T/C [29]: 66.8% | viability, T/C [30]: 71.2%

Source: PubChem BioAssay AID2060601 (Molecular Pharmacology Branch, DTP, NCI, 2025)
